Test results from PubChem BioAssay (NCI).
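48-hour exposure; five concentrations; linearly interpolated endpoints. GI50 is the concentration that inhibits growth by half. TGI: total growth inhibition.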

How the values were obtained:
Experiment in all cases: NCI-60 cell line screen, 48 h
[1] = system: MOLT-4 leukemia
[2] = system: HCT-116 colon
[3] = system: SW-620 colon
[4] = system: PC-3 prostate
[5] = system: LOX IMVI melanoma
[6] = system: COLO 205 colon
[7] = system: SF-268 CNS
[8] = system: MDA-MB-231 breast
[9] = system: CCRF-CEM leukemia
[10] = system: HT29 colon
[11] = system: EKVX NSCLC
[12] = system: A498 renal
[13] = system: M14 melanoma
[14] = system: MALME-3M melanoma
[15] = system: 786-0 renal
[16] = system: UACC-257 melanoma
[17] = system: OVCAR-4 ovarian
[18] = system: NCI-H522 lung
[19] = system: RXF 393 renal
[20] = system: HCC-2998 colon
[21] = system: MDA-MB-435
[22] = system: A549 NSCLC
[23] = system: SF-295 CNS
[24] = system: NCI-H226 lung
[25] = system: RPMI-8226 leukemia
[26] = system: NCI-H460 lung
[27] = system: SK-MEL-5 melanoma
[28] = system: HL-60(TB) leukemia
[29] = system: OVCAR-8 ovarian
[30] = system: BT-549 breast
[31] = system: T-47D breast
[32] = system: KM12 colon
[33] = system: SF-539 CNS
[34] = system: OVCAR-5 ovarian
[35] = system: SN12C renal
[36] = system: HS 578T breast
[37] = system: SK-MEL-28 melanoma
[38] = system: SNB-19 CNS
[39] = system: HOP-92 NSCLC
[40] = system: U251 CNS
[41] = system: DU-145 prostate
[42] = system: NCI-H23 lung
[43] = system: NCI/ADR-RES ovarian
[44] = system: UO-31 renal
[45] = system: HCT-15 colon
[46] = system: MCF7 breast
[47] = system: HOP-62 NSCLC
[48] = system: SK-OV-3 ovarian
[49] = system: K-562 leukemia
[50] = system: CAKI-1 renal
[51] = system: SK-MEL-2 melanoma
[52] = system: TK-10 renal
[53] = system: SNB-75 CNS
[54] = system: UACC-62 melanoma
[55] = system: ACHN renal
[56] = system: IGROV1 ovarian
[57] = system: OVCAR-3 ovarian

C[C@@H]1CN(c2ccc3ncc(C#Cc4cncc(C(=O)Nc5ccc(CN6CCN(C)CC6)c(C(F)(F)F)c5)c4)n3n2)C[C@H](C)O1
GI50 [1]: 77.7 nM | TGI [1]: 529 nM | GI50 [2]: 34.5 nM | TGI [2]: 274 nM | GI50 [3]: 57.7 nM | TGI [3]: 2450 nM | GI50 [4]: 128 nM | TGI [4]: 1810 nM | GI50 [5]: 36.8 nM | TGI [5]: 144 nM | GI50 [6]: 135 nM | TGI [6]: 781 nM | GI50 [7]: 111 nM | TGI [7]: 522 nM | GI50 [8]: 32 nM | TGI [8]: 223 nM | GI50 [9]: 200 nM | TGI [9]: 10300 nM | GI50 [10]: 67.4 nM | TGI [10]: 1100 nM | GI50 [11]: 39.9 nM | TGI [11]: 300 nM | GI50 [12]: 118 nM | TGI [12]: 253 nM | GI50 [13]: 36.5 nM | TGI [13]: 322 nM | GI50 [14]: 77.8 nM | TGI [14]: 251 nM | GI50 [15]: 48.3 nM | TGI [15]: 202 nM | GI50 [16]: 228 nM | TGI [16]: 1410 nM | GI50 [17]: 123 nM | TGI [17]: 1590 nM | GI50 [18]: 33.9 nM | TGI [18]: 181 nM | GI50 [19]: 30.1 nM | TGI [19]: 141 nM | GI50 [20]: 153 nM | TGI [20]: 956 nM | GI50 [21]: 86.1 nM | TGI [21]: 1110 nM | GI50 [22]: 63.6 nM | TGI [22]: 410 nM | GI50 [23]: 214 nM | TGI [23]: 1530 nM | GI50 [24]: 33.9 nM | TGI [24]: 334 nM | GI50 [25]: 258 nM | TGI [25]: 5640 nM | GI50 [26]: 74.9 nM | TGI [26]: 732 nM | GI50 [27]: 270 nM | TGI [27]: 1160 nM | GI50 [28]: 50.7 nM | TGI [28]: 312 nM | GI50 [29]: 176 nM | TGI [29]: 991 nM | GI50 [30]: 135 nM | TGI [30]: 411 nM | GI50 [31]: 363 nM | TGI [31]: 5360 nM | TGI [32]: 563 nM | GI50 [33]: 33.2 nM | TGI [33]: 135 nM | GI50 [34]: 157 nM | TGI [34]: 975 nM | GI50 [35]: 26.9 nM | TGI [35]: 275 nM | GI50 [36]: 32.8 nM | TGI [36]: 348 nM | GI50 [37]: 295 nM | TGI [37]: 1340 nM | GI50 [38]: 325 nM | TGI [38]: 1150 nM | GI50 [39]: 28.8 nM | TGI [39]: 118 nM | GI50 [40]: 119 nM | TGI [40]: 1300 nM | GI50 [41]: 50.4 nM | TGI [41]: 292 nM | GI50 [42]: 102 nM | TGI [42]: 322 nM | GI50 [43]: 445 nM | TGI [43]: 1910 nM | GI50 [44]: 79.8 nM | TGI [44]: 361 nM | GI50 [45]: 45.4 nM | TGI [45]: 471 nM | GI50 [46]: 51.3 nM | TGI [46]: 651 nM | GI50 [47]: 121 nM | TGI [47]: 844 nM | GI50 [48]: 216 nM | TGI [48]: 736 nM | TGI [49]: 359 nM | GI50 [50]: 33.9 nM | TGI [50]: 157 nM | GI50 [51]: 130 nM | TGI [51]: 294 nM | GI50 [52]: 68.3 nM | TGI [52]: 400 nM | GI50 [53]: 102 nM | TGI [53]: 235 nM | GI50 [54]: 138 nM | TGI [54]: 1010 nM | GI50 [55]: 37.5 nM | TGI [55]: 211 nM | GI50 [56]: 34.4 nM | TGI [56]: 201 nM | GI50 [57]: 98.2 nM | TGI [57]: 1150 nM
